{"source": "patent US11632953B2", "about": "“Method for controlling hematophagous or sap-feeding arthropods” (Board of Supervisors of Louisiana State University and …, priority 2016, dated 2023)", "key": {"[1]": {"test_system": "sugar and bitter cells of mosquito mouthparts", "assay": "electrophysiological recordings of maxilla gustatory sensilla"}, "[2]": {"test_system": "isolated tick salivary gland", "assay": "ion secretion in saliva of the isolated tick salivary gland", "design": "species or system Amblyomma americanum"}, "Aedes aegypti mosquitoes [3]": {"test_system": "Aedes aegypti mosquitoes", "assay": "mosquito blood feeding with compound exposure", "assay_type": "in vivo", "conditions": "compound added to blood", "from_the_text": "Tolbutamide and glybenclamide are inhibitors of ATP-gated Kir channels."}, "Aedes aegypti mosquitoes [4]": {"test_system": "Aedes aegypti mosquitoes", "assay": "saliva collection from live mosquito after injection", "assay_type": "in vivo", "conditions": "control 1.4 μL", "from_the_text": "We investigated the influence of Katp modulators on mosquito salivation and blood feeding. We employed an established assay to collect the saliva from a live mosquito."}, "[5]": {"test_system": "isolated tick salivary gland", "assay": "fluid secretion (salivation) in the isolated tick salivary gland, modified Ramsay assay", "design": "species or system Amblyomma americanum", "conditions": "for total salivation volume: control 150 nL/5 min; for IC50: read-out: IC50 inhibition of salivation"}, "Amblyomma americanum [6]": {"test_system": "Amblyomma americanum", "assay": "tick blood feeding with compound included in the blood meal", "assay_type": "in vivo", "conditions": "for average detachments during blood feeding: control 0.11", "excerpt": "All ticks were observed attempting to feed by including rhodamine B, a fluorescent tracer, in the blood meal."}, "Amblyomma americanum [7]": {"test_system": "Amblyomma americanum", "assay": "tick toxicity (compound in blood meal or injected)", "assay_type": "in vivo", "conditions": "for mortality rate: in blood meal", "from_the_text": "A failure to osmoregulate during blood feeding would result in a buildup of ions at toxic concentrations into the hemocoel."}, "Chickungunya virus": {"test_system": "Chickungunya virus", "assay": "infection of mosquitoes by virus after blood meal", "conditions": "in vivo"}, "mosquitoes": {"test_system": "mosquitoes", "conditions": "in vivo; cited from earlier work"}, "mosquito Kin channels": {"test_system": "mosquito Kin channels", "conditions": "in vitro; cited from earlier work"}}, "note": "Read-outs that look alike come from different tables or passages of the source."}
{"compound": "CC(N=C(NC#N)Nc1ccncc1)C(C)(C)C", "note": "(racemic) [pinacidil, (±)-N-Cyano-N′-4-pyridinyl-N″-(1,2,2-trimethylpropyl)guanidine]", "values": [{"measurement": "response of gustatory sensilla cells", "setting": "[1]", "value": "elicits a spike in the sugar and bitter cells"}, {"measurement": "cations (K+ and Na+) concentrations excreted from the salivary glands", "setting": "[2]", "value": "significant reduction"}, {"measurement": "reduction of total volume of blood consumed", "setting": "Aedes aegypti mosquitoes [3]", "value": 99, "unit": "%"}, {"measurement": "secreted saliva volume", "setting": "Aedes aegypti mosquitoes [4]", "value": 0.3, "unit": "µL"}, {"measurement": "total salivation volume", "setting": "[5]; 600 μM pinacidil after pre-exposure to ATP", "value": 142, "unit": "nL/5 min"}, {"measurement": "total salivation volume", "setting": "[5]; 600 μM pinacidil", "value": 40, "unit": "nL/5 min"}, {"measurement": "Effect on Salivation at 10 minutes (reduction)", "setting": "[5]; 10 minutes, isolated tick salivary gland", "value": "Reduced ~98%"}, {"measurement": "IC50", "setting": "[5]; Amblyomma americanum, 10 min, 10 min of salivation", "value": 320000, "unit": "nM"}, {"measurement": "IC50", "setting": "[5]; Amblyomma americanum, 20 min, 20 min of salivation", "value": 250000, "unit": "nM"}, {"measurement": "IC50", "setting": "[5]; Amblyomma americanum, 0.5 h, 30 min of salivation", "value": 120000, "unit": "nM"}, {"measurement": "reduction of salivary output / saliva secretion compared to control", "setting": "[5]; isolated tick salivary gland", "value": 97, "unit": "%"}, {"measurement": "reduction of volume of blood ingested", "setting": "Amblyomma americanum [6]; 400 μM in blood meal, throughout the course of feeding", "value": "up to 15 fold"}, {"measurement": "average detachments during blood feeding", "setting": "Amblyomma americanum [6]", "value": 2.1, "unit": "times per feeding"}, {"measurement": "volume of blood ingested", "setting": "Amblyomma americanum [6]; day 6 of feeding, 400 μM, control 16±4", "value": "1.2±0.3", "unit": "μL per day"}, {"measurement": "mortality rate", "setting": "Amblyomma americanum [7]; day 1", "value": 65, "unit": "%"}, {"measurement": "mortality rate", "setting": "Amblyomma americanum [7]; day 2", "value": 72, "unit": "%"}, {"measurement": "mortality rate", "setting": "Amblyomma americanum [7]; day 3", "value": 88, "unit": "%"}, {"measurement": "mortality rate", "setting": "Amblyomma americanum [7]; day 4", "value": 94, "unit": "%"}, {"measurement": "mortality rate", "setting": "Amblyomma americanum [7]; day 5", "value": 99, "unit": "%"}, {"measurement": "infection of mosquitoes by the virus after feeding on a blood meal", "setting": "Chickungunya virus", "value": "inhibited infection"}]}
{"compound": "Cn1c(=O)c2c(ncn2Cc2ccc(C(C)(C)C)cc2)n(C)c1=O", "note": "[VU063]", "values": [{"measurement": "cations (K+ and Na+) concentrations excreted from the salivary glands", "setting": "[2]", "value": "significant reduction"}, {"measurement": "reduction of total volume of blood consumed", "setting": "Aedes aegypti mosquitoes [3]", "value": 99, "unit": "%"}, {"measurement": "secreted saliva volume", "setting": "Aedes aegypti mosquitoes [4]", "value": 0.1, "unit": "µL"}, {"measurement": "effect on salivation in the isolated salivary gland", "setting": "[5]", "value": "eliminated salivation"}, {"measurement": "IC50", "setting": "[5]; 10 min of salivation", "value": 772, "unit": "nM"}, {"measurement": "IC50", "setting": "[5]; 20 min of salivation", "value": 560, "unit": "nM"}, {"measurement": "IC50", "setting": "[5]; 30 min of salivation", "value": 410, "unit": "nM"}, {"measurement": "effect of pre-exposure of the gland to ATP on inhibition of salivation", "setting": "[5]; pre-exposure to ATP", "value": "negated the inhibitory effect"}, {"measurement": "tick body weights", "setting": "Amblyomma americanum [6]; VU063 at 100 μM in blood meal", "value": "not statistically different from that of unfed ticks"}, {"measurement": "volume of ingested blood", "setting": "Amblyomma americanum [6]; compound in blood meal, VU063 at 100 μM", "value": "below the limits of detection"}, {"measurement": "average detachments during blood feeding", "setting": "Amblyomma americanum [6]", "value": 3.6, "unit": "times per feeding"}, {"measurement": "pattern of mortality as a function of time compared with pinacidil", "setting": "Amblyomma americanum [7]; exposed while feeding", "value": "nearly-identical pattern of mortality"}]}
{"compound": "CCC(=O)N1c2ccc(S(=O)(=O)Nc3cccc(OC)c3)cc2CC1C", "note": "(stereo not shown) [VU625]", "values": [{"measurement": "topical toxicity to mosquitoes", "setting": "mosquitoes", "value": "not topically toxic"}, {"measurement": "IC50", "setting": "mosquito Kin channels", "value": "~100", "unit": "nM"}]}
